In patent publication US11396523B2, “Proton activated atomic medicine” (priority 2017, dated 2022):

Columns and labels:
[1] = test system: glioblastoma cell line U87-MG; experiment: in vitro colony assay (survival fraction) after proton beam irradiation; details: for cytotoxicity / cell kill compared to the proton beam treatment alone: 8 Gye single fraction protons plus compound, U87 cells exposed 96 hours before irradiation
Protocol: FIG. 1 is a graphic representation of the dose of irradiation (x-axis) versus the log survival fraction (y-axis) of log phase U87 human glioblastoma cells. Three groups were used. […] This molecule is synthesized by replacing the 2 position of the aromatic ring of the nitrogenous base with oxygen-18. When these cells are treated with protons, there is a chemical transmutation at the atomic level where upon the oxygen-18 atom is changed into radioactive fluorine-18.
Physiologic serum concentrations in normal and cancer patients the physiologic serum concentration is ˜0.3-1.2 μM. The cells were irradiated with 2 and 8 Gye with 160 MeV protons single fraction and cell death/survival was determined using a colony assay and calculation of survival fraction.

[2] = large doses, human cancer patients; cited from earlier work

Compound	increased cell kill ([1]; 0.5 microgram HTd exposed for 96 hours in vitro, 8 Gye single fraction protons, versus protons alone (FIG. 1))	cytotoxicity / cell kill compared to the proton beam treatment alone [1]	cytotoxicity / cell kill compared to the proton beam treatment alone ([1]; listed as heavy thymidine)	radiation sensitization ([1]; plus a single dose of 8 Gye of protons)	effect on cell survival ([1]; same concentration X time exposure (0.5, 96 hours) plus 8 Gye protons)	concentrations in the serum achieved [2]
C2-^18O-Thymidine [2-HTd]	about half a log	increased cytotoxicity	greater cell kill	proton specific radiation sensitization		
Cc1cn([C@H]2C[C@H](O)[C@@H](CO)O2)c(=O)[nH]c1=O [Thymidine, reference compound]					no effect	milli-molar range
